The text below walks through data of patent US8389562B2, “Polymorphic forms of a 3-pyrrole substituted 2-indolinone” (Medichem, S.A., priority 2007, dated 2013).

The structures appear in SMILES notation.

The nature of data set [1]: solubility profile of sunitinib base as observed by applicants. It is filed as physicochemical. Particulars: sunitinib base obtained in the prior art (Form III); qualitative observation. An excerpt: In this regard, the low solubility of sunitinib base Form III would involve the use of large amounts of suitable solvents or mixture of solvents and/or the use of particular conditions aimed to improve the solubility of sunitinib base Form III and/or long reaction times for processes using sunitinib, which may represent an important drawback, especially for processes on an industrial scale.

For data set [2] the following is noted: European Public Assessment Report provided for SUTENT; cited from earlier work.

`CCN(CC)CCNC(=O)c1c(C)[nH]c(/C=C2\C(=O)Nc3ccc(F)cc32)c1C` [sunitinib base Form III, N-[2-(diethylamino)ethyl]-5-[(Z)-(5-fluoro-1,2-dihydro-2-oxo-3H-indol-3-ylidine)methyl]-2,4-dimethyl-1H-pyrrole-3-carboxamide]: the solubility profile result in data set [1] is given as “low solubility profile”.
With `CCN(CC)CCNC(=O)c1c(C)[nH]c(/C=C2\C(=O)Nc3ccc(F)cc32)c1C` [sunitinib, N-[2-(diethylamino)ethyl]-5-[(Z)-(5-fluoro-1,2-dihydro-2-oxo-3H-indol-3-ylidine)methyl]-2,4-dimethyl-1H-pyrrole-3-carboxamide], in data set [2], the “solubility class according to the biopharmaceutical classification” value is “low solubility compound”.
